According to publication PMC11011439, “Influence of Molecular Design on the Tumor Targeting and Biodistribution of PSMA-Binding Tracers Labeled with Technetium-99m” (International Journal of Molecular Sciences, 2024):
Marks after values point to notes of the source that are not given here.

Legend:
PSMA [1] = biological target: T1, PSMA (Homo sapiens, UniProt Q04609); assay: In vitro binding specificity (saturation with non-labeled PSMA-11) on PC3-pip cells; settings: 2 nM tracer, 250-fold molar excess of PSMA-11, 1 h, 37 °C
T1 construct: expressed in transfected cells; host or cells: PC3-pip cells (from Prof. Martin G. Pomper, Johns Hopkins University)
Protocol: For the in vitro binding specificity test, approximately 8 × 10^5 of PC3-pip cells per well were seeded in 6-well plates 24 h before the experiment. Cells in three control wells were pre-saturated with a 250-fold excess of non-labeled PSMA-11 15 min before the addition of radiotracers, while the second set was treated with complete media. After 15 min of incubation at room temperature, [^99mTc]Tc-labeled radioligands were added to all wells to reach a concentration of 2 nM. After one hour of incubation at 37 °C, the cells were washed with PBS solution, detached, and collected. Cell-associated activity was measured using a gamma counter and presented as the percentage of added activity.

[2] = system: PSMA-expressing prostate cancer xenografts (PC3-pip); assay: Biodistribution and tumor targeting in PC3-pip tumor-bearing mice; format: in vivo, BALB/c nu/nu mice; settings: 3 h pi
Protocol: PSMA-expressing prostate cancer xenografts were implanted in BALB/c nu/nu mice by subcutaneous injection of PC3-pip cell suspension in PBS (10^7 cells/animal in 100 µL). The average tumor weight was 0.3 ± 0.2 g at the time of the experiment. Four mice per data point were used. Mice were intravenously injected with 5 nmol of the radiotracer (60 kBq, the mass of the injected compound was adjusted with an unlabeled tracer). The mice were euthanized 3 h pi, and the samples were treated as described above.

[3] = Stability of the [99mTc]Tc-maG3 complex in PBS and under cysteine challenge (radio-HPLC); format: physicochemical
Protocol: The iTLC data were cross-validated using radio-HPLC analysis, performed using a Hitachi Chromaster HPLC system with a radioactivity detector and Phenomenex Luna® C18 column (100 Å; 150 × 4.6 mm; 5 µm) at room temperature (20 °C), in the following conditions: solvent A: 0.1% trifluoroacetic acid (TFA) in H2O, solvent B: 0.1% TFA in acetonitrile, flow rate: 1 mL/min. For identity and purity analysis of [^99mTc]Tc-BQ0411 and [^99mTc]Tc-BQ0412, the method with a gradient from 5 to 60% solvent B over 20 min was used.
To evaluate the chemical stability of the [^99mTc]Tc-maG3 complex, fractions of radiolabeled conjugates (10 µL, 0.25 µg) were incubated with a 300× molar excess of cysteine or with PBS at room temperature for 1 h. The test was run in triplicate.

[4] = Octanol/water distribution coefficient (LogD); format: physicochemical; settings: n-octanol / Milli-Q water
Protocol: The LogD was determined experimentally based on the procedure described earlier. Briefly, the radiolabeled compound of interest was added to a LoBind Eppendorf tube (Eppendorf, Hamburg, Germany) containing Milli-Q water (500 μL) and n-octanol (500 μL), and the mixture was vortexed and centrifuged. Thereafter, three fractions from each phase were collected and the activity was measured using a gamma counter. The LogD was calculated by dividing the average activity measured in octanol by the average activity measured in water.

PC3-pip cells = assay: Cellular processing (internalization) during continuous incubation; format: cell-based; settings: 2 nM, 37 °C
Protocol: To evaluate the cellular processing of [^99mTc]Tc-labeled BQ0411 and BQ0412, PC3-pip cells were incubated with the radiolabeled tracer (2 nM), and at predetermined time points (1, 2, 4, and 8 h), cells were treated with 0.5 mL of 4 M urea solution in a 0.2 M glycine buffer, pH 2.5, for 5 min on ice. After that, the acidic supernatant was collected, and this fraction was considered to be the membrane-bound activity. To lyse the cells, 0.5 mL of 1 M sodium hydroxide solution was added and incubated at 37 °C for at least 20 min. The alkaline-containing solution was collected, and the basic fraction was considered to be the internalized activity.

[5] = Biodistribution in NMRI mice; format: in vivo; settings: for activity in carcass / activity in intestines with content / uptake in blood / uptake in kidney / uptake in liver / uptake in lung / uptake in salivary glands / uptake in spleen / uptake in stomach: 40 pmol/mouse iv
Protocol: Four NMRI mice were intravenously injected with 40 pmol of the radiotracer (60 kBq, the mass of the injected compound was adjusted with an unlabeled tracer). The mice were euthanized with a lethal intraperitoneal injection of ketamine/xylazine, followed by exsanguination at 3 and 24 h post-injection (pi). The organs of interest were collected, weighed, and measured for their activity content using a gamma counter. The uptake activity in organs was calculated as the percentage of injected activity per gram (%IA/g) for the blood, salivary glands, lungs, liver, spleen, stomach, and kidneys and as %IA for the remaining carcass and the rest of the intestines with content.

PSMA [6] = biological target: T1, PSMA; assay: Real-time binding kinetics on living PC3-pip cells (LigandTracer Yellow); settings: 5 nM tracer, 1:2 interaction model
Protocol: The binding kinetics of [^99mTc]Tc-labeled BQ0411, BQ0412, and BQ0413 were measured in real time using LigandTracer Yellow Instruments (Ridgeview Instruments AB, Uppsala, Sweden) on PC3-pip cells, as described earlier. The activity binding was recorded at 5 nM on the radiolabeled tracers for 150 min. After measuring the binding kinetics, the medium containing the labeled tracer was replaced with fresh medium, and the dissociation was monitored over 7 h. […]

T1 sequence (Q04609 whole entry): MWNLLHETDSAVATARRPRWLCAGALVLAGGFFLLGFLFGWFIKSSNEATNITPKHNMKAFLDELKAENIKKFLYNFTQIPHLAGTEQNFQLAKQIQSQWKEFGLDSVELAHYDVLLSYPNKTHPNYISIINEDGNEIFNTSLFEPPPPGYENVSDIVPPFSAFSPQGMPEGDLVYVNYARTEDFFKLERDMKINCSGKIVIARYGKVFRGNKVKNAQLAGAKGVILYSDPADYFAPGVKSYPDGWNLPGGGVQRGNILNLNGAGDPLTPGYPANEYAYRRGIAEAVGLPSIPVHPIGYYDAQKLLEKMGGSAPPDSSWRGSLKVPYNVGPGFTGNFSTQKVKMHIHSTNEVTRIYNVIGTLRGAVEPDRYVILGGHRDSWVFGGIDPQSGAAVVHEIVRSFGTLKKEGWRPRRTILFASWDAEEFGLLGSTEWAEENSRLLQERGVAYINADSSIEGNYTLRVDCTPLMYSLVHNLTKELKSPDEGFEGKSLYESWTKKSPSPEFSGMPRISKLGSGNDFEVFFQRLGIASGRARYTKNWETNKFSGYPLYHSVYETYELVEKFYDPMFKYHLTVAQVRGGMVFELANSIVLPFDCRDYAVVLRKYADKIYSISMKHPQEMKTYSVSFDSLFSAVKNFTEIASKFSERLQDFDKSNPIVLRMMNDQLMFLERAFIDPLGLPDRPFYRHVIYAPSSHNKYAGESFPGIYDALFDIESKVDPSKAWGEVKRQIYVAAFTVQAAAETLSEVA

SMILES: CC(=O)N[C@@H](CCCCNC(=O)C[N]1C(=O)C[N]2C(=O)C[N]3C(=O)C[S][99Tc-]132=[O])C(=O)NCCCCCCCC(=O)N[C@@H](Cc1ccc(O)cc1)C(=O)N[C@@H](Cc1ccc2ccccc2c1)C(=O)NCCCC[C@H](NC(=O)N[C@@H](CCC(=O)O)C(=O)O)C(=O)O [[^99mTc]Tc-BQ0412]
- binding to PC3-pip cells after pre-treatment with excess non-labeled PSMA-11 (PSMA [1]): significantly (p ˂ 0.0001) decreased
- activity in carcass ([2]; 5 nmol/mouse iv): 2.6 ± 1.3 %IA/sample
- activity in intestines with content ([2]; 5 nmol/mouse iv): 69 ± 17 ^c %IA/sample
- uptake in blood ([2]; 5 nmol/mouse iv): 0.5 ± 0.1 %IA/g
- uptake in bone ([2]; 5 nmol/mouse iv): 0.15 ± 0.07 %IA/g
- uptake in kidney ([2]; 5 nmol/mouse iv): 16 ± 5 %IA/g
- uptake in liver ([2]; 5 nmol/mouse iv): 0.5 ± 0.1 %IA/g
- uptake in lung ([2]; 5 nmol/mouse iv): 0.5 ± 0.1 %IA/g
- uptake in muscle ([2]; 5 nmol/mouse iv): 0.2 ± 0.1 %IA/g
- uptake in pancreas ([2]; 5 nmol/mouse iv): 0.4 ± 0.3 %IA/g
- uptake in salivary glands ([2]; 5 nmol/mouse iv): 0.2 ± 0.1 ^c %IA/g
- uptake in small intestine ([2]; 5 nmol/mouse iv): 1.2 ± 0.7 ^c %IA/g
- uptake in spleen ([2]; 5 nmol/mouse iv): 0.6 ± 0.3 %IA/g
- uptake in stomach ([2]; 5 nmol/mouse iv): 0.3 ± 0.2 %IA/g
- uptake in tumor ([2]; 5 nmol/mouse iv): 17 ± 5 %IA/g
- tumor-to-blood ratio ([2]; 5 nmol/mouse): 35 ± 4 ^c
- tumor-to-bone ratio ([2]; 5 nmol/mouse): 128 ± 38
- tumor-to-kidney ratio ([2]; 5 nmol/mouse): 1.1 ± 0.1
- tumor-to-liver ratio ([2]; 5 nmol/mouse): 35 ± 5 ^c
- tumor-to-lung ratio ([2]; 5 nmol/mouse): 39 ± 6
- tumor-to-muscle ratio ([2]; 5 nmol/mouse): 143 ± 58 ^c
- tumor-to-pancreas ratio ([2]; 5 nmol/mouse): 82 ± 33
- tumor-to-salivary ratio ([2]; 5 nmol/mouse): 90 ± 16 ^c
- tumor-to-small intestine ratio ([2]; 5 nmol/mouse): 19 ± 9 ^c
- tumor-to-spleen ratio ([2]; 5 nmol/mouse): 26 ± 6
- tumor-to-stomach ratio ([2]; 5 nmol/mouse): 77 ± 29
- activity uptake in the gastrointestinal tract (with content) [2]: over 40 %IA
- release of activity under cysteine challenge ([3]; 300-fold molar excess of cysteine, room temperature, 1 h): around 60%
- stability during incubation in PBS ([3]; PBS, room temperature, 1 h): stable
- share of activity in radio-HPLC peak, retention time 6.2 min ([3]; cysteine challenge, radiolabeled product, speculated Tc–cysteine complex): 32.5%
- share of activity in radio-HPLC peak, retention time 14.1 min ([3]; cysteine challenge, radiolabeled product, speculated intermediate transchelation product): 25.5%
- logD (octanol–water distribution coefficient) [4]: −2.3 ± 0.1
- internalized activity (of cell-associated activity) (PC3-pip cells; 4 h of continuous incubation): 43 ± 1%
- internalized activity (of cell-associated activity) (PC3-pip cells; after 4 h (8 h of continuous incubation)): 32 ± 1%
- activity in carcass ([5]; 3 h pi): 2.9 ± 0.1 *^,c %IA/sample
- activity in intestines with content ([5]; 3 h pi): 70 ± 7 *^,c %IA/sample
- uptake in blood ([5]; 3 h pi): 0.5 ± 0.1 %IA/g
- uptake in kidney ([5]; 3 h pi): 56 ± 9 *^,c %IA/g
- uptake in liver ([5]; 3 h pi): 3 ± 1 *^,c %IA/g
- uptake in lung ([5]; 3 h pi): 0.3 ± 0.1 *^,c %IA/g
- uptake in salivary glands ([5]; 3 h pi): 0.24 ± 0.03 *^,c %IA/g
- uptake in spleen ([5]; 3 h pi): 0.23 ± 0.07 *^,c %IA/g
- uptake in stomach ([5]; 3 h pi): 0.17 ± 0.03 *^,c %IA/g
- activity in carcass ([5]; 24 h pi): 0.12 ± 0.03 ^c %IA/sample
- activity in intestines with content ([5]; 24 h pi): 0.16 ± 0.04 ^c %IA/sample
- uptake in blood ([5]; 24 h pi): 0.016 ± 0.002 ^c %IA/g
- uptake in kidney ([5]; 24 h pi): 1.1 ± 0.3 ^c %IA/g
- uptake in liver ([5]; 24 h pi): 0.016 ± 0.004 ^c %IA/g
- uptake in lung ([5]; 24 h pi): 0.014 ± 0.008 ^c %IA/g
- uptake in salivary glands ([5]; 24 h pi): 0.015 ± 0.006 ^c %IA/g
- uptake in spleen ([5]; 24 h pi): 0.007 ± 0.005 %IA/g
- uptake in stomach ([5]; 24 h pi): 0.07 ± 0.05 ^c %IA/g
- uptake in intestines with content, fold higher than [99mTc]Tc-BQ0411 ([5]; 3 h pi): 1.6 fold
- uptake in kidneys, fold lower than [99mTc]Tc-BQ0411 ([5]; 3 h pi): 2.3 fold
- activity remaining in the body ([5]; 3 h pi, excluding activity in the intestines with content): 20–30 % from injected
- washout of activity from kidneys ([5]; 24 h pi compared to 3 h pi): 98%
- ka1 (PSMA [6]): 31000 M⁻¹ s⁻¹
- ka2 (PSMA [6]): 46000 M⁻¹ s⁻¹
- kd1 (PSMA [6]): 1.4e-05 s⁻¹
- kd2 (PSMA [6]): 1.6e-05 s⁻¹
